# In patent US6310247A, “7-aryl-6(Z)-heptatrienoic acid retinamides” (Hoffmann-LA Roche Inc., priority 1999, dated 2001):
# Entries after “also recorded” stand apart in the source; their conditions may differ. Like-named read-outs stand apart in the source and are kept apart here.
# Tests used:
# [1] = tested on: ER+ and ER- breast carcinoma cells; settings: cited from earlier work
# tumors = settings: cited from earlier work
# [2] = cited from earlier work
# tumor cells = settings: cited from earlier work; for Differentiation of certain tumor cells (in words): in vitro
# human carcinoma cells = settings: in vitro; cited from earlier work
# RKO cells = assay: Apoptosis: cell death detection by ELISA, RKO (colorectal carcinoma); type: cell-based, human; settings: Homo sapiens, RKO, 10 uM, read-out: Fold induction of apoptosis, internal positive control (cont.)
# Protocol: Colorectal carcinoma, human (RKO) obtained from Dr. Bernie Vogelstein, were grown in Gibco's Delbecco Minimum Essential media (DMEM), high glucose, supplemented with sodium pyruvate, 10% FBS and 13 ng/mL gentamicin. Cells were incubated at 37° C., 4.5% CO2 and 95.5% humidified air.
# (§1) 2. Apoptosis: Cell death detection by ELISA:
# (§2) Compounds of formula 1 were tested for the ability to cause apoptosis as follows:
# (§3) Cells and media were collected, cells were pelleted, resuspended in 100 μl lysis buffer (50 mM Tris-Cl (pH=8.0), 20 mM EDTA, 1% NP-40e) and incubated 30 minutes at 4° C. to lyse. Cell debris was spun down and an aliquot (30 μl) of the […] was removed for protein determination and stored at -20° C. An additional 280 μl of lysis buffer, was added, mixed thoroughly and spun down at 14,000 RPM for 10 minutes at 4° C. An aliquot was removed (180 μl) and the sample was stored at -20° C. until testing.
# (§4) A commercially available apoptosis detection kit, obtained from Boehringer Mannheim (Cat. No. 1544-674), was used as per the directions provided with the kit (Cell Death Detection ELISA). However, the protocol was modified in that a 1:40 to 1:100 dilution of sample was prepared, rather than the recommended 1:10 dilution, due to the increase in cell number used to prepare the sample extract and the subsequent increase in ELISA reactivity. The assay measures apoptosis by quantifying the amount of nucleosomal fragmentation from the extracts of cells treated with the test compounds (samples). These nucleosomal fragments, generated by the activation of endonucleases, are a known downstream effector of apoptosis. Antihistone antibodies are used to fix any nucleosomal fragments in the sample to the well of the microtiter plates. The sample is then incubated with anti-DNA antibodies conjugated to peroxidase and subsequently incubated with the peroxidase substrate, ABTS. The resulting colorimetric change is measured spectrophotometrically at 405/490nm.
# (§5) The total protein content of each sample was determined for the purpose of normalizing the ELISA values to amount of sample loaded. Microplate assay protocol described in the instruction manual, for (Biorad DC Assay, Cat.#500-0116) section 5.2. The protein concentrations were calculated based upon a linear regression curve.
# (§6) d) ELISA assay calculations
# (§7) Relative ELISA O.D. readings are determined by subtracting the ELISA plate background O.D. value. No drug control O.D. value (lysis buffer only) was subtracted from sample O.D. value. A correction coefficient (CC), based on the sample protein concentration compared to no drug control, was determined to correct the sample O.D. following subtraction of the background O.D. (BCS O.D.). The fold increase over no drug control is calculated and normalized to the total protein concentration of the samples by multiplying against the correction coefficient.
# (§8) To determine the fold increase in ELISA O.D., obtain the following O.D. measurements:
# (§9) ELISA plate background--lysis buffer only (EPB);
# (§10) no drug treated control--cell sample treated with DMSO (NDT);
# (§11) drug treated sample--cell sample treated with a compound of formula 1 (DT) Subtract EPB from NDT (NDT-EPB) and DT (DT-EPB). The fold increase of the treated over the control is then (DT-EPB)/(NDT-EPB).
# (§12) To determine the total protein concentration of the samples, obtain the total protein concentration in mg/ul calculated using standard linear regression formula (y=mx+b) based on BSA standards. B=ELISA background. Protein concentration (PC)(mg/ml)=(sample absorbance-b)/x.
# (§13) Correction coefficient (cc) is (NDT)(PC)/(DT)(PC).
# (§14) Determine fold increase of ELISA (FT) normalized to total PC:
# (§15) nDT is DT×cc (which is DT O.D. normalized to PC)
# (§16) nNDT is NDT×cc (which is NDT O.D. normalized to PC)
# (§17) FI normalized to PC is nDT/nNDT.
# ZR-75-1 cells = assay: Apoptosis: cell death detection by ELISA, ZR-75-1; type: cell-based, human; settings: for fold induction at 10 µM / fold induction at 1 µM / fold induction at 3.3 µM: Homo sapiens
# Protocol: ER+ breast carcinoma, human (ZR-75-1) obtained from ATCC (CRL 1500), were grown in Gibco's RPMI 1640 media supplemented with sodium pyruvate, 10% FBS and 13 ng/mL gentamicin. Cells were incubated at 37° C., 4.5% CO2 and 95.5% humidified air.
# as §1, §2, §3, §4, §5, §6, §7, §8, §9, §10, §11, §12, §13, §14, §15, §16, §17
# H1299 cells = assay: Apoptosis: cell death detection by ELISA, H1299 (lung large cell carcinoma); type: cell-based; settings: Homo sapiens, NCI-H1299, 10 uM, read-out: Fold induction of apoptosis, internal positive control (cont.)
# Protocol: Lung, large cell carcinoma, human (H1299), obtained from ATCC (CRL-5803), were grown in Gibco's Delbecco Minimum Essential media (DMEM), high glucose, supplemented with sodium pyruvate, 10% FBS and 13 ng/mL gentamicin. Cells were incubated at 37° C., 4.5% CO2 and 95.5% humidified air.
# as §1, §2, §3, §4, §5, §6, §7, §8, §9, §10, §11, §12, §13, §14, §15, §16, §17
# MDA-435 cells = assay: Apoptosis: cell death detection by ELISA, MDA-435; type: cell-based, human; settings: for Fold induction of apoptosis, internal positive control (cont.) / fold induction at 10 µM: 10 uM; for fold induction at 10 µM / fold induction at 1 µM / fold induction at 3.3 µM: Homo sapiens
# Protocol: ER- breast carcinoma, human (MDA-435) obtained from Dr. Janet Price, MDA Cancer Center, Houston, Tex., were grown in Gibco's RPMI 1640 media supplemented with sodium pyruvate, 10% FBS and 13 ng/mL gentamicin. Cells were incubated at 37° C., 4.5% CO2 and 95.5% humidified air.
# as §1, §2, §3, §4, §5, §6, §7, §8, §9, §10, §11, §12, §13, §14, §15, §16, §17
# [3] = tested on: retinoic acid X α, β and γ receptors (RXR); settings: cited from earlier work
# RAR α, β and γ receptors = settings: cited from earlier work
# [4] = tested on: ER+ and ER- breast carcinoma cells; assay: Induction of apoptosis in ER+ and ER- carcinoma cells (statements in words); type: cell-based, human
# Protocol: as §1, §2, §3
# A commercially available apoptosis detection kit, obtained from Boehringer Mannheim (Cat. No. 1544-674), was used as per the directions provided with the kit (Cell Death Detection ELISA). […] The assay measures apoptosis by quantifying the amount of nucleosomal fragmentation from the extracts of cells treated with the test compounds (samples). […] The resulting colorimetric change is measured spectrophotometrically at 405/490nm.
# The total protein content of each sample was determined for the purpose of normalizing the ELISA values to amount of sample loaded. […] The protein concentrations were calculated based upon a linear regression curve. […]
# as §7, with “No drug control O.D. value (lysis buffer only) was subtracted from sample O.D. value.” left out, “coefficient. […]” for “coefficient.”
# To determine the total protein concentration of the samples, obtain the total protein concentration in mg/ul calculated using standard linear regression formula (y=mx+b) based on BSA standards. […] Protein concentration (PC)(mg/ml)=(sample absorbance-b)/x. […]
# [5] = ZR-75-1, 24 h, 24 hrs, read-out: Fold induction of apoptosis compared to no drug control
# [6] = ZR-75-1, 48 h, 48 hrs, read-out: Fold induction of apoptosis compared to no drug control
# [7] = ZR-75-1, 72 h, 72 hrs, read-out: Fold induction of apoptosis compared to no drug control
# [8] = MDA435, 24 h, 24 hrs, read-out: Fold induction of apoptosis compared to no drug control
# [9] = MDA435, 48 h, 48 hrs, read-out: Fold induction of apoptosis compared to no drug control
# [10] = MDA435, 72 h, 72 hrs, read-out: Fold induction of apoptosis compared to no drug control
smiles,measurement,setting,value
"CC1=C(/C=C/C(C)=C/C=C/C(C)=C/C(=O)Nc2ccc(O)cc2)C(C)(C)CCC1 [4-HPR, all trans 4-hydroxyphenyl retinamide]",Growth inhibition and apoptosis in breast carcinoma cells (in words),[1],capable of inhibiting cell growth and inducing apoptosis; also recorded: appears to induce apoptosis and cause inhibition of cell growth
same,Chemopreventative activity (in words),tumors; against a number of malignancies,potent chemopreventative agent
same,Tumor regression (in words),tumors; in vivo,capable of tumor regression in vivo
same,Effect on tumor formation and tumor growth (in words),tumors; via apoptosis,inhibit tumor formation and tumor growth via apoptosis
same,Major toxicity seen in the clinic,[2],night vision impairment
same,Induction of apoptosis in retinoid-resistant cells (in words),tumor cells; cells resistant to retinoids that activate RARs efficiently,effective in inducing apoptosis
same,Growth inhibition and apoptosis in other tumor cell types (in words),tumor cells; including lung carcinoma cell and hematopoetic malignancies,inhibit cell growth and to induce apoptosis
O=c1[nH]cc(F)c(=O)[nH]1 [5FU],Induction of apoptosis in human carcinoma cells (in words),human carcinoma cells,induce apoptosis
"CC1=C(/C=C/C(C)=C\C=C\C(C)=C\C(=O)Nc2ccc(O)cc2)C(C)(C)CCC1 [9-cis 4-HPR, reference compound]",fold induction at 10 µM,RKO cells; 24 hrs,8
same,fold induction at 10 µM,RKO cells; 48 hrs,9
same,fold induction at 10 µM,RKO cells; 72 hrs,5
same,"Fold induction of apoptosis, internal positive control (cont.)","ZR-75-1 cells; 24 hrs, 10 uM, 1440 min",2 fold
same,fold induction at 10 µM,"ZR-75-1 cells; ZR-75-1, 24 h, 24 hrs, 10 uM, read-out: Fold induction of apoptosis, internal positive control (cont.)",1
same,fold induction at 10 µM,H1299 cells; 24 hrs,1
same,fold induction at 10 µM,H1299 cells; 48 hrs,15
same,fold induction at 10 µM,H1299 cells; 72 hrs,25
same,"Fold induction of apoptosis, internal positive control (cont.)","MDA-435 cells; 48 hrs, 2880 min",10 fold
same,"Fold induction of apoptosis, internal positive control (cont.)","MDA-435 cells; 72 hrs, 4320 min",12 fold
same,fold induction at 10 µM,"MDA-435 cells; MDA435, 48 h, 48 hrs, read-out: Fold induction of apoptosis, internal positive control (cont.)",15
same,fold induction at 10 µM,"MDA-435 cells; MDA435, 72 h, 72 hrs, read-out: Fold induction of apoptosis, internal positive control (cont.)",19
CC1=C(/C=C/C(C)=C\C=C\C(C)=C\C(=O)O)C(C)(C)CCC1 [9-cis RA],Binding to RXR (in words),[3],bind
same,Tumor regression (in words),tumors; 9-cis RA and its analogs,cause tumor regression
same,Binding to RAR (in words),"RAR α, β and γ receptors",bind
CC1=C(/C=C/C(C)=C/C=C/C(C)=C\C(=O)O)C(C)(C)CCC1 [13-cis RA],Ability to induce apoptosis (in words),tumor cells,very limited
same,Differentiation of certain tumor cells (in words),tumor cells,cause differentiation of certain tumor cells in vitro
"C/C(=C/C=C/C(C)=C/C(=O)O)c1cc(C(F)(F)F)cc(C(F)(F)F)c1 [(2E,4E,6Z)-7-[3,5-bis(trifluoromethyl)phenyl]-3,7-dimethyl-2,4,6-heptatrienoic acid]",fold induction at 1 µM,ZR-75-1 cells; [5],1
same,fold induction at 3.3 µM,ZR-75-1 cells; [5],1
same,fold induction at 10 µM,"ZR-75-1 cells; ZR-75-1, 24 h, 24 hrs, 10 uM, read-out: Fold induction of apoptosis compared to no drug control",1
same,fold induction at 1 µM,ZR-75-1 cells; [6],1
same,fold induction at 3.3 µM,ZR-75-1 cells; [6],1
same,fold induction at 10 µM,"ZR-75-1 cells; ZR-75-1, 48 h, 48 hrs, 10 uM, read-out: Fold induction of apoptosis compared to no drug control",1
same,fold induction at 1 µM,ZR-75-1 cells; [7],1
same,fold induction at 3.3 µM,ZR-75-1 cells; [7],1
same,fold induction at 10 µM,"ZR-75-1 cells; ZR-75-1, 72 h, 72 hrs, 10 uM, read-out: Fold induction of apoptosis compared to no drug control",2
same,fold induction at 1 µM,MDA-435 cells; [8],1
same,fold induction at 3.3 µM,MDA-435 cells; [8],1
same,fold induction at 10 µM,MDA-435 cells; [8],1
same,fold induction at 1 µM,MDA-435 cells; [9],1
same,fold induction at 3.3 µM,MDA-435 cells; [9],1
same,fold induction at 10 µM,MDA-435 cells; [9],1
same,fold induction at 1 µM,MDA-435 cells; [10],1
same,fold induction at 3.3 µM,MDA-435 cells; [10],1
same,fold induction at 10 µM,MDA-435 cells; [10],2
same,Induction of apoptosis (in words),"[4]; 72 h, compared with the corresponding amide",induces considerably lower amounts apoptosis only after 72 h
same,Activity against ER- and ER+ carcinoma cells (induction of apoptosis),[4]; ER- and ER+ carcinoma cells,inactive
COc1cccc2c1C(=O)c1c(O)c3c(c(O)c1C2=O)C[C@@](O)(C(=O)CO)C[C@@H]3O[C@H]1C[C@H](N)[C@H](O)[C@H](C)O1 [Adriamycin],Induction of apoptosis in human carcinoma cells (in words),human carcinoma cells,induce apoptosis
CC1=C(/C=C/C(C)=C/C=C/C(C)=C/C(=O)O)C(C)(C)CCC1 [All-trans RA],Ability to induce apoptosis (in words),tumor cells,very limited
same,Differentiation of certain tumor cells (in words),tumor cells,cause differentiation of certain tumor cells in vitro
CC(=O)O[C@H]1C(=O)[C@@]2(C)[C@H]([C@H](OC(=O)c3ccccc3)[C@]3(O)C[C@H](OC(=O)[C@H](O)[C@@H](NC(=O)c4ccccc4)c4ccccc4)C(C)=C1C3(C)C)[C@]1(OC(C)=O)CO[C@@H]1C[C@@H]2O [Taxol],Induction of apoptosis in human carcinoma cells (in words),human carcinoma cells,induce apoptosis
